Laboratory results as given in patent publication US20240018102A1, “COMPOUNDS AND COMPOSITIONS FOR TREATING CONDITIONS ASSOCIATED WITH LPA RECEPTOR ACTIVITY” (Lhotse Bio, Inc., priority 2020, published 2024).

Target: T1, human LPA1 (Homo sapiens, UniProt Q92633)
T1 construct: expressed in transfected cells; host or cells: CHO-K1
Assay: In vitro LPA1 functional antagonist assay (calcium mobilization, FLIPR)
Type: cell-based
Details: CHO-K1 cells overexpressing human LPA1; Oleoyl LPA challenge; calcium mobilization on FLIPR Tetra
Method: In Vitro LPA1 Functional Antagonist Assay
CHO-K1 cells overexpressing human LPA1 were seeded in a total volume of 20 μL into black-walled, clear-bottom, Poly-D-lysine coated 384-well microplates and incubated at 37° C. for the appropriate time prior to testing. Assays were performed in 1× Dye Loading Buffer consisting of 1× Dye, 1× Additive A and 2.5 mM Probenecid in HBSS/20 mM Hepes. Probenicid was prepared fresh. Cells were loaded with dye prior to testing. Media was aspirated from cells and replaced with […] Dye Loading Buffer. Cells were incubated for 30-60 minutes at 37° C. After dye loading, cells were removed from the incubator and 10 μL 3× test compound was added. Cells were incubated for 30 minutes at room temperature in the dark to equilibrate plate temperature followed by Oleoyl LPA challenge at the 0.018 M. Compound antagonist activity was measured on a FLIPR Tetra (MDS). Calcium mobilization was monitored for 2 minutes and 10 μL Oleoyl LPA in HBSS/20 mM Hepes was added to the cells 5 seconds into the assay. Compound activity was analyzed using CBIS data analysis suite (ChemInnovation, CA). Percentage inhibition is calculated using the following formula:
% Inhibition=100%×(1−(mean RFU of test sample−mean RFU of vehicle control)/(mean RFU of LPA control−mean RFU of vehicle control)).

T1 sequence (Q92633 whole entry): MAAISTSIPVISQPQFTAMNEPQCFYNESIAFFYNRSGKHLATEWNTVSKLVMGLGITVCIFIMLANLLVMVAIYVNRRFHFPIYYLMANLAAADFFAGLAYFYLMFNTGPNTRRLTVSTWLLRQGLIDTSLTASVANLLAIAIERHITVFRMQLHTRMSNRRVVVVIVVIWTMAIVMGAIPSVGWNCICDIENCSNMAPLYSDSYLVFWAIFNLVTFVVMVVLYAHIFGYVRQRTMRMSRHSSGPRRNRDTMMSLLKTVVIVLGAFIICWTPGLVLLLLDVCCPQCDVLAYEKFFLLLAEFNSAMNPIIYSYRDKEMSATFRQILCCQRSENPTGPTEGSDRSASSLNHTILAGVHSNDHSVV

| Structure (SMILES) | IC50 [µM] |
| --- | --- |
| COc1cc([C@@H](O)[C@H](Cn2cc3cccc(C(=O)O)c3n2)OC2CCCC2)ccc1Cl [Compound 126a, 2-((2S,3R)-3-(4-chloro-3-methoxyphenyl)-2-(cyclopentyloxy)-3-hydroxypropyl)-2H-indazole-7-carboxylic acid] | 0.0648 |
| Cc1ccc([C@@H](O)[C@H](Cn2cc3cccc(C(=O)O)c3n2)OC2CCCC2)cn1 [Compound 127a] | > 10 |
| O=C(O)c1cccc2cn(C[C@H](OC3CCCC3)[C@H](O)c3ccc(C(F)F)cc3)nc12 [Compound 128a] | 0.207 |
| COc1cc([C@@H](O)[C@H](Cc2nc(CC(=O)O)cs2)OC2Cc3ccccc3C2)cc(OC)c1C [Compound 129a, 2-(2-((2S,3R)-2-((2,3-dihydro-1H-inden-2-yl)oxy)-3-(3,5-dimethoxy-4-methylphenyl)-3-hydroxypropyl)thiazol-4-yl)acetic acid] | 0.00338 |
| COc1cc([C@@H](O)[C@H](Cc2ccc(CC(=O)O)c(OC)n2)OCCc2ccccc2)cc(OC)c1C [Compound 130a, 2-(6-((2S,3R)-3-(3,5-dimethoxy-4-methylphenyl)-3-hydroxy-2-phenethoxypropyl)-2-methoxypyridin-3-yl)acetic acid] | 1.19 |
| COc1cc([C@@H](O)[C@H](Cc2nc3cc(C(=O)O)ccc3[nH]2)OCC2CCC2)cc(OC)c1C [Compound 131a, 2-((2S,3R)-2-(cyclobutylmethoxy)-3-(3,5-dimethoxy-4-methylphenyl)-3-hydroxypropyl)-1H-benzo[d]imidazole-5-carboxylic acid] | > 10 |
| COC(=O)c1cn(C[C@H](OCCc2ccccc2)[C@@H](O)c2cc(OC)c(C)c(OC)c2)cc1CC(=O)O [Compound 132] | 1.54 |
| N#Cc1cc([C@@H](O)[C@H](Cn2cc3cccc(C(=O)O)c3n2)OC2CCCC2)ccc1Cl [Compound 134] | > 10 |
| COc1cc([C@H](O)[C@H](Cn2cc3cccc(C(N)=O)c3n2)OC2CCCC2)ccc1F [Compound 135] | > 10 |
| O=C(O)c1cccc2cn(C[C@H](OC3CCCC3)[C@H](O)c3ccccc3)nc12 [Compound 136] | > 10 |
| O=C(O)c1cccc2cn(C[C@H](OC3CCCC3)[C@@H](O)c3ccccc3)nc12 [Compound 137] | > 10 |
| COc1cc([C@H](O)[C@H](Cn2cc3cccc(C(=O)O)c3n2)OC2CCCC2)ccc1F [Compound 138] | > 10 |
| COc1cc([C@@H](O)[C@H](Cn2cc3cccc(C(=O)O)c3n2)OC2CCCC2)ccc1F [Compound 139] | 1.35 |

Results, then the compound that gave them:

| IC50 [µM] | Structure (SMILES) |
| --- | --- |
| 0.0118 | COc1cc([C@@H](O)[C@H](Cn2cc3cccc(C(=O)O)c3n2)OC2CCCCC2)cc(OC)c1C [Compound 140] |
| 0.193 | CCOc1cc([C@@H](O)[C@H](Cn2cc3cccc(C(=O)O)c3n2)OC2CCCC2)ccc1C [Compound 141] |
| > 10 | COc1cc([C@@H](O)[C@H](Cc2nc3c(C(=O)O)cccc3[nH]2)OC2CCCC2)cc(OC)c1C [Compound 142] |
| 0.00766 | CCOC(=O)c1cn(C[C@H](OC2CCCC2)[C@H](O)c2cc(OC)c(C)c(OC)c2)cc1CC(=O)O [Compound 143] |
| 0.00204 | COc1cc([C@@H](O)[C@H](Cn2cc3cc(Cl)cc(C(=O)O)c3n2)OC2CCCC2)cc(OC)c1C [Compound 144] |
| 0.0726 | COc1cc([C@@H](O)[C@H](Cn2cc3cccc(C(=O)O)c3n2)OC(C)C)cc(OC)c1C [Compound 145] |
